Source: PubChem BioAssay (NCI)
“And” between values parts separate entries of the source, which are not always exact repeats. Equal entries are not always repeated.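 Method: 48-hour compound exposure of cells in 96-well plates, five concentrations, linear interpolation of endpoints. The concentration for 50% growth inhibition is given as GI50. The concentration for full growth arrest is given as TGI.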

How the values were obtained:
Assay in all cases: DTP human tumour cell line panel, 48 h
MCF7 breast = tested on: MCF7 breast
SK-OV-3 ovarian = tested on: SK-OV-3 ovarian
NCI-H23 lung = tested on: NCI-H23 lung
NCI-H460 lung = tested on: NCI-H460 lung
SR leukemia = tested on: SR leukemia
HCT-116 colon = tested on: HCT-116 colon
HL-60(TB) leukemia = tested on: HL-60(TB) leukemia
UACC-62 melanoma = tested on: UACC-62 melanoma
HCT-15 colon = tested on: HCT-15 colon
COLO 205 colon = tested on: COLO 205 colon

SMILES	TGI (MCF7 breast)	TGI (SK-OV-3 ovarian)	TGI (NCI-H23 lung)	TGI (NCI-H460 lung)	TGI (SR leukemia) [µM]	TGI (HCT-116 colon)	TGI (HL-60(TB) leukemia) [µM]	TGI (UACC-62 melanoma)	TGI (HCT-15 colon)	TGI (COLO 205 colon)	GI50 (SK-OV-3 ovarian)	GI50 (NCI-H23 lung) [nM]	GI50 (HCT-116 colon)	GI50 (HL-60(TB) leukemia) [nM]	GI50 (UACC-62 melanoma) [nM]	GI50 (HCT-15 colon)
CCOC(=O)/C=C1\Nc2ccccc2C12CCc1c([nH]c3ccccc13)C2C(=O)OCC (stereo not given)	> 100 µM	> 100 µM	> 100 µM	> 100 µM	> 100	> 100 µM	> 100	> 100 µM	> 100 µM	30.2 µM						
C#CC(C)(C)Oc1cc(OC)c2c(=O)c3ccccc3n(C)c2c1	> 100 µM	54.9 µM		36 µM	14.9	> 100 µM	28.7	32 µM	44.5 µM	33.7 µM						
COc1cn2c(cc1=O)COc1ccc(-c3ccccc3)cc1-2	> 100 µM	> 100 µM	> 100 µM	> 100 µM	> 100	> 100 µM	> 100	> 100 µM	> 100 µM	> 100 µM						
COc1cc(C2C(Cl)C(=O)N2c2ccc(Br)cc2)cc(I)c1O (stereo not given)	> 100 µM	> 100 µM	> 100 µM	> 100 µM	> 100	> 100 µM	> 100	> 100 µM	> 100 µM	> 100 µM						
CN(C)c1ccc(/C=C(\NC(=O)c2ccccc2)C(=O)Nc2ccccc2C(=O)NN2C(=O)CSC2c2ccc(N(C)C)cc2)cc1 (stereo not given)	> 100 µM	> 100 µM	> 100 µM	31.7 µM	> 100	> 100 µM	> 100	> 100 µM	> 100 µM	> 100 µM						
c1ccc2c(c1)CC1c3[nH]c4ccccc4c3CCN21 (stereo not given)	> 10 µM	> 10 µM	> 10 µM	> 10 µM	> 10	> 10 µM	> 10	> 10 µM	> 10 µM	> 10 µM						
COc1cc2c3c(n(CCCNCCO)c(=O)c2cc1OC)-c1cc2c(cc1C3=O)OCO2	0.155 µM and 0.113 µM	2.15 µM and 19 µM	0.171 µM and 0.493 µM	0.23 µM and 0.0797 µM		1.05 µM and 0.686 µM		0.842 µM and 0.779 µM	2.08 µM and 7.76 µM	2 µM and 5.42 µM	603 nM and 663 nM	43.7	66.2 nM and 63.9 nM	< 27.7	39.4	548 nM and 657 nM
Cn1c(N)c(/C=N/NC(=O)CC#N)c(=O)n(C)c1=O	> 100 µM	> 100 µM		> 100 µM	> 100	> 100 µM		> 100 µM	> 100 µM	> 100 µM						
CC(C)=CC(=O)O[C@@H]1CC(C)(C)CC2C3=CCC4[C@]56CC[C@](O)(OC5)C(C)(C)C6CC[C@@]4(C)C3(C)CC[C@]21C(=O)O (stereo not given in full)	> 100 µM	> 100 µM	89.4 µM	> 100 µM	> 100	> 100 µM	> 100	> 100 µM	> 100 µM	50.4 µM						
CCCCC[C@H](O)[C@H](C)C=C1SCCCS1	> 100 µM	> 100 µM	> 100 µM		> 100	> 100 µM	> 100	> 100 µM	> 100 µM	> 100 µM						
COc1ccc(Cn2nc(OCc3ccccn3)c3cc([N+](=O)[O-])ccc32)cc1	> 100 µM	> 100 µM	> 100 µM	> 100 µM	> 100		> 100	> 100 µM	> 100 µM							
CN(C)c1ccc(-c2nc(-c3cc4c(ccc5ccccc54)oc3=O)cs2)cc1	> 100 µM	> 100 µM		> 100 µM	> 100	> 100 µM	> 100	> 100 µM	> 100 µM	> 100 µM						
CC1(C)OC[C@@H](/C=C\CCO[Si](c2ccccc2)(c2ccccc2)C(C)(C)C)N1C(=O)c1ccccc1	24.4 µM	> 100 µM	96.7 µM	17.3 µM	23.7	21.4 µM	14.6	33.1 µM	> 100 µM	21.9 µM						
O=C(Cc1nc2ccc(C(=O)c3ccccc3)cc2[nH]c1=O)C(=O)Nc1ccccc1[N+](=O)[O-]	> 100 µM	> 100 µM	> 100 µM	> 100 µM	> 100	> 100 µM	> 100	> 100 µM	> 100 µM							
Cc1ccc(S(=O)(=O)Nn2c(-c3ccccc3)c(C#N)c(-c3ccc([N+](=O)[O-])cc3)c(C#N)c2=O)cc1	> 100 µM	> 100 µM		> 100 µM		> 100 µM	> 100	> 100 µM	> 100 µM	> 100 µM						
O=C1/C(=C/c2cccc(Oc3ccccc3)c2)N=C(c2ccccc2)N1c1nc2ccc(Sc3ccccc3)cc2[nH]1	> 100 µM	> 100 µM	> 100 µM	64 µM		> 100 µM	49.9	74.9 µM	> 100 µM	31.5 µM						
O=C1c2cc(Cl)ccc2-n2c(noc2=O)C2CSCN12 (stereo not given)	> 100 µM	> 100 µM		> 100 µM	> 100	> 100 µM		> 100 µM	> 100 µM	> 100 µM						
Cc1ccc(Nc2nc(=O)[nH]c(=O)[nH]2)cc1N	> 100 µM	> 100 µM	> 100 µM	> 100 µM	> 100	> 100 µM	> 100	> 100 µM	> 100 µM	> 100 µM						
COc1cc(C(=O)Nc2nnc(S(N)(=O)=O)s2)cc(OC)c1OC	> 100 µM	> 100 µM	> 100 µM	> 100 µM	> 100	> 100 µM	> 100	> 100 µM	> 100 µM	> 100 µM						
C/C(=N\N=C(N)N)c1c(C(=O)OCCCCCCOC(=O)c2nc3sccn3c2/C(C)=N/N=C(N)N)nc2sccn12	> 100 µM		> 100 µM	> 100 µM	41.2	> 100 µM	> 100	> 100 µM	> 100 µM	> 100 µM						
N#Cc1c(=O)c2cccnc2n2c1[nH]c1ccccc12	> 100 µM	> 100 µM	> 100 µM	> 100 µM	> 100	> 100 µM	> 100	> 100 µM	> 100 µM	> 100 µM						
